Reference: ChEMBL document CHEMBL1201862, “PubChem BioAssay data set” (2004)
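1) Cells in 96-well plates. 2) Compound, 48 h, 5 concentrations. 3) Linear interpolation between surrounding doses. 4) Unreached endpoint = highest concentration. At the GI50, growth is halved.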 Active and inactive are the calls of the source. Rule as the data show it: active = GI50 up to about 1.1 µM and inactive = higher.

Tests used:
Experiment in all cases: NCI-60 cell line screen, 48 h
SF-295 = system: SF-295
HCT-116 = system: HCT-116
NCI/ADR-RES = system: NCI/ADR-RES
SK-MEL-28 = system: SK-MEL-28
Hs-578T = system: Hs-578T
SF-539 = system: SF-539
NCI-H460 = system: NCI-H460
SR = system: SR
U-251 = system: U-251
MDA-MB-435 = system: MDA-MB-435
MDA-MB-231 = system: MDA-MB-231
NCI-H226 = system: NCI-H226
HOP-92 = system: HOP-92
PC-3 = system: PC-3
DU-145 = system: DU-145

Structure (SMILES)	GI50 (SF-295)	GI50 (HCT-116)	GI50 (NCI/ADR-RES)	GI50 (SK-MEL-28)	GI50 (Hs-578T)	GI50 (SF-539)	GI50 (NCI-H460)	GI50 (SR)	GI50 (U-251)	GI50 (MDA-MB-435)	GI50 (MDA-MB-231)	GI50 (NCI-H226)	GI50 (HOP-92)	GI50 (PC-3)	GI50 (DU-145)
O=S(=O)(O)c1cc(/N=N/c2c(O)ccc3ccccc23)cc2c(S(=O)(=O)O)cccc12	> 100 µM (inactive)	> 100 µM (inactive)	> 100 µM (inactive)	> 100 µM (inactive)	> 100 µM (inactive)	> 100 µM (inactive)	> 100 µM (inactive)	> 100 µM (inactive)	> 100 µM (inactive)	> 100 µM (inactive)	> 100 µM (inactive)	> 100 µM (inactive)	> 100 µM (inactive)	> 100 µM (inactive)	
O=S(=O)(N/N=C1\CC2CCC1C2)c1ccccc1 (stereo not drawn)	> 100 µM (inactive)	> 100 µM (inactive)	> 100 µM (inactive)	> 100 µM (inactive)	> 100 µM (inactive)		> 100 µM (inactive)	> 100 µM (inactive)	> 100 µM (inactive)	> 100 µM (inactive)		> 100 µM (inactive)	> 100 µM (inactive)	> 100 µM (inactive)	> 100 µM (inactive)
c1ccc(-c2ccc(-c3ccc(C4=NCCN4)cc3)o2)cc1	1.92 µM (inactive)	1.77 µM (inactive)	4.3 µM (inactive)	1.8 µM (inactive)		2.11 µM (inactive)	2.4 µM (inactive)	0.773 µM (active)	1.92 µM (inactive)	1.97 µM (inactive)	2 µM (inactive)	2.99 µM (inactive)	2.17 µM (inactive)	2.23 µM (inactive)	3.25 µM (inactive)
CC(=O)/C(=C/NC(=S)Nc1ccc(Cl)c(Cl)c1)C(=O)Nc1ccccc1C	32 µM (inactive)	33.7 µM (inactive)	18.7 µM (inactive)	44.7 µM (inactive)		14.5 µM (inactive)	38.5 µM (inactive)		33 µM (inactive)	28.3 µM (inactive)	27.8 µM (inactive)	13.8 µM (inactive)	22 µM (inactive)		26.4 µM (inactive)
CCCNC(=O)NNC(=O)c1c[nH]c2nc(C)ccc2c1=O	> 100 µM (inactive)	> 100 µM (inactive)	> 100 µM (inactive)	> 100 µM (inactive)	> 100 µM (inactive)		> 100 µM (inactive)		> 100 µM (inactive)	> 100 µM (inactive)	> 100 µM (inactive)	> 100 µM (inactive)		> 100 µM (inactive)	> 100 µM (inactive)
N#CC[C@@H](O)COc1ccccc1	> 100 µM (inactive)	> 100 µM (inactive)		> 100 µM (inactive)	> 100 µM (inactive)	> 100 µM (inactive)	> 100 µM (inactive)	> 100 µM (inactive)	> 100 µM (inactive)	> 100 µM (inactive)	> 100 µM (inactive)	> 100 µM (inactive)		> 100 µM (inactive)	> 100 µM (inactive)
COC(=O)/C=C/c1ccc2c(c1)CC1(Cc3ccccc3C1)C2	> 100 µM (inactive)	0.0478 µM (active)	> 100 µM (inactive)		23.6 µM (inactive)	> 100 µM (inactive)		32.6 µM (inactive)	> 100 µM (inactive)	41.3 µM (inactive)	> 100 µM (inactive)	> 100 µM (inactive)	> 100 µM (inactive)	> 100 µM (inactive)	
Cc1nc2ccc(F)cc2c2c1CCO2	> 100 µM (inactive)	68.1 µM (inactive)	> 100 µM (inactive)	> 100 µM (inactive)	> 100 µM (inactive)	> 100 µM (inactive)	61.1 µM (inactive)	> 100 µM (inactive)	66.2 µM (inactive)	70.1 µM (inactive)	20.1 µM (inactive)	> 100 µM (inactive)	78.7 µM (inactive)		> 100 µM (inactive)
CN(c1ccc(Cl)cc1)S(=O)(=O)c1ccc([N+](=O)[O-])cc1	> 100 µM (inactive)	> 100 µM (inactive)	> 100 µM (inactive)	> 100 µM (inactive)	> 100 µM (inactive)	> 100 µM (inactive)	> 100 µM (inactive)		> 100 µM (inactive)	> 100 µM (inactive)	> 100 µM (inactive)	> 100 µM (inactive)		> 100 µM (inactive)	> 100 µM (inactive)
CC(=NNC(=S)Nc1ccccc1C)c1cccc(C(C)=NNC(=S)Nc2ccccc2C)n1	8.93 µM (inactive)	18.4 µM (inactive)	18.6 µM (inactive)	13 µM (inactive)		6.68 µM (inactive)	15.3 µM (inactive)	0.262 µM (active)	34.4 µM (inactive)	60.4 µM (inactive)		9.73 µM (inactive)	11.4 µM (inactive)	32.1 µM (inactive)	23.1 µM (inactive)
COc1ccc(C2=C(OC(C)=O)c3cccn3-c3ccccc3S2)cc1	1.45 µM (inactive)			3.66 µM (inactive)				3.36 µM (inactive)		0.265 µM (active)	0.728 µM (active)		1.58 µM (inactive)	2.3 µM (inactive)	2.46 µM (inactive)
